# According to patent US10406227B2, “Photoactivated molecules for light-induced modulation of the activity of electrically excitable cells and methods of using same” (University of Southern California, priority 2012, dated 2019):
# Legend:
# [1] = tested on: cell lines and primary cells; experiment: Cell health / tolerance on RubpyC17 exposure (stable gigaseal, viability); type: cell-based
# Protocol: However, in several embodiments, other organic ligands coupled to other transition metals are also used, with reduced and/or non-existent adverse side effects. […] Excessive and prolonged whole cell incubation with RubpyC17 (e.g., >10 μM for >5 min) may result in cell toxicity, since a stable gigaseal cannot be stably maintained in those cells. At this time, the mechanism behind the adverse effects on cell health upon RubpyC17 overexposure is not yet fully known. Since perforation was not achieved when a small patch of membrane was exposed to a high dose of RupbyC17, it was hypothesized that when an entire cell is overexposed to RubpyC17, there may be sufficient random interactions between excess RubpyC17 complex and endogenous surface molecules (i.e., proteins, carbohydrates, sugars), triggering signals that lead to cell health deterioration. However, when used in its appropriate dose range (e.g., <about 10 μM for cell lines and <about 2 μM for primary cells, according to one embodiment), RubpyC17 is tolerated by cells and consistently confers light sensitivity.
# HEK293T cells = experiment: Imaging RubpyC17 in live cells (membrane luminescence); type: cell-based, human
# Protocol: Cells were imaged at 1-3 days after plating. The glass-bottomed chambers with adherent cells were washed twice with PBS and then filled with standard extracellular solution consisting of 140 mM NaCl, 2.8 mM KCl, 10 mM HEPES, 1 mM MgCl2, 2 mM CaCl2, and 10 mM glucose, pH adjusted to 7.2-7.4 and osmolarity adjusted to 290-310 mOsm. The chamber was then mounted on an Olympus IX70 inverted microscope stage for imaging, using a Cascade 512B EMCCD camera, operated by Metamorph software. Initial imaging was done with cells in extracellular solution without RubpyC17, first under brightfield to evaluate cell health and morphology, then under widefield argon ion laser illumination at 488 nm (Coherent, Innova 90-5, Santa Clara, Calif.), to evaluate autofluorescence. Next, the extracellular solution was removed and replaced with extracellular solution containing the RubpyC17 compound (10 μM in ≤0.01% DMSO, final concentrations). Cell images were then acquired with illumination at 488 nm (collected with a long-pass red emission filter). For electrophysiological experiments, RubpyC17 compound was added to the extracellular solution (2-10 μM in ≤0.01% DMSO, final concentrations as indicated) and cells were incubated for 1.5-45 min, as indicated, then washed with extracellular solution without RubpyC17. Some chromaffin cells were also exposed continuously to 490-900 nM RubpyC17-containing extracellular solution.
# Illustrated here are rat insulinoma INS cells (FIG. 1C, top), human embryonic kidney (HEK293T) cells (FIG. 1C, middle), and primary cultured mouse chromaffin cells (FIG. 1C, bottom). […] All cell types preserved morphology for at least 10 minutes. […] One embodiment of the possible light-induced electron transfer is depicted in FIG. 1D.
# RCS rats = experiment: Extracellular recording from superior colliculus after intravitreal injection; type: in vivo, rat
# Description: This finding was reproduced in 3 of 3 RCS rats injected with Rubpy-C17, and in 2 of 2 control (sham injection) RCS rats.
# [2] = tested on: mouse adrenal chromaffin cells; experiment: Perforated patch clamp action potential recording; type: cell-based
# Protocol: Action potentials in chromaffin cells were monitored using perforated patch clamp electrophysiology in current-clamp mode, using an EPC10 amplifier and Pulsemaster data acquisition software (HEKA electronics). A coverslip containing mouse chromaffin cells was transferred to a recording chamber and perfused with extracellular solution. Extracellular solution consists of 140 mM NaCl, 2.8 mM KCl, 10 mM HEPES, 1 mM MgCl2, 2 mM CaCl2, 10 mM glucose, pH adjusted to 7.3, and osmolarity adjusted to 290-300 mOsm. Intracellular solution consisted of 145 mM KCl, 10 mM NaCl, 1 mM MgCl2, and 10 mM HEPES, pH adjusted to 7.3 and osmolarity adjusted to 290-300 mOsm. Perforation solution was prepared by adding 4.5 μl of 125 mg/ml stock of amphoterecin B (Sigma) in DMSO to 1.8 mls of intracellular solution, and homogenizing for 5-10 s. Perforation was achieved within 3-10 min following gigaseal formation. Series resistances were in the range of 8-22 Mohm. Light stimulation in the blue spectrum originated from a xenon lamp source with an irradiance value of 0.480 mE s^−1 m^−2 through a 470/40 nm bandpass excitation filter. The duration of illumination varied and is indicated by bars on figures.
# The behavior of excitable cells (cells capable of firing action potentials) treated with RubpyC17 was next investigated. Perforated patch clamp recording was performed on mouse adrenal chromaffin cells pretreated with 450-900 nM RubpyC17 for 15-30 minutes before beginning electrophysiological recordings. […] A slow, gradual reversal, on the order of seconds after light illumination was terminated (FIG. 3A), was observed.
substance,measurement,setting,value
[Ru(bpy)2(bpy-C17)](PF6)2 [RubpyC17],tolerated dose range,[1]; cell lines,< 10 µM
same,whole cell incubation concentration that may result in cell toxicity,"[1]; for >5 min, stable gigaseal not maintained",> 10 µM
same,viability of chromaffin cells,[1]; incubations of ˜30 min,continued viability
same,tolerated dose range,[1]; primary cells,< 2 µM
same,time cell morphology preserved,HEK293T cells; 10 μM RubpyC17,at least 10 minutes
same,incorporation into plasma membrane (membrane-localized luminescence),"HEK293T cells; 10 μM in bath, 488 nm excitation",rapidly and stably incorporates into mammalian cell membranes
same,membrane luminescence after removal from bath solution,HEK293T cells; 10 minutes after RubpyC17 removal,still observed
same,RCS rats showing light-evoked superior colliculus activity,"RCS rats; intravitreal, final concentration 100 μM",3 of 3
same,light-evoked electrical activity in superior colliculus,"RCS rats; intravitreal, final concentration 100 μM, 30 minutes after injection",elicited reproducible and stereotypical electrical activity
same,persistence of light-induced SC electrical responses after injection,RCS rats; single eye injection,up to 3 days
same,effect of light on action potential firing,"[2]; 900 nM RubpyC17 pretreatment, 5 mM ascorbate",triggered action potentials or increased the rate of action potential firing
same,"action potential firing rate, single cell, ascorbate changed for ferricyanide",[2]; 2 μM RubpyC17 for 1.5 min,light-induced increase and then light-induced decrease
same,effect of light on action potential firing,[2]; 100 μM ferricyanide,decreased the rate of action potential firing
same,action potential waveform shape,[2]; before vs during light illumination,no change in the shape of action potential waveforms
same,effect of light on action potential firing,[2]; ferricyanide increased from 100 to 200 μM,further suppressed action potential firing
